Source: US9345786B2, “Maytansinoid derivatives” (priority 2013, dated 2016)

How the values were obtained:
[1] = test system: tubulin; test: HTS-Tubulin Polymerization Assay Kit, tubulin polymerization in vitro; type: biochemical; settings: 1 μM solution, 10 μL + 100 μL 4 mg/ml tubulin, 37° C., 405 nm; compared with the PBS buffer (FIG. 6)
Method: According to the instruction of kit, pre-warm the 96-well plate to 37° C. for 30 min prior to starting the assay. At the same time, the spectrophotometer (SpectraMax, Molecular Devices, USA) was set as follow: wavelength, 405 nm; temperature, 37° C.; Kinetic, 31 cycles of 1 reading per minute. Make cold G-PEM buffer (990 μL General Tubulin Buffer+10 μL GTP Stock) and keep it on ice. […] Immediately place the plate into the spectrophotometer and start recording using the kinetic setup described above. […] Nocodazole, the tubulin polymerization inhibitor, was set as a negative control. The metabolite Cys-3AA-MDC was prepared by reaction of 3AA-MDC with cysteine under the base DIEA in CH2Cl2. LC-MS (M+H^+) calc.: 964.5. found: 964.2. Rt: 12.97 min. The metabolite Lys-MCC-MDC was prepared by reaction of SMCC-MDC with lysine under the base DIEA in DMF. LC-MS (M+H^+) calc.: 1103.7. found: 1103.2. Rt: 13.00 and 13.18 min.

[2] = test system: Lewis lung carcinoma and B-16 melanocarcinoma solid murine tumor models; settings: mouse, in vivo; cited from earlier work
[3] = test system: human acute lymphoblastic leukemia line C.E.M.; settings: cited from earlier work
[4] = test system: multiple cancer cell lines; settings: cited from earlier work

| SMILES | inhibition of tubulin polymerization [1] | further results |
| --- | --- | --- |
| COc1cc2cc(c1Cl)N(C)C(=O)C[C@H](OC(=O)[C@H](C)N(C)C(=O)CCCCCN1C(=O)C=CC1=O)[C@]1(C)OC1[C@H](C)[C@@H]1C[C@@](O)(NC(=O)O1)[C@H](OC)/C=C/C=C(\C)C2 (stereo partly drawn) [3AA-MDC, N2′-deacetyl-N2′-(6-maleimido-1-oxo-hexyl)maytansine] | more significantly inhibited the tubulin polymerization |  |
| CN[C@@H](C)C(=O)OC1CC(=O)N(C)c2cc(cc(OC)c2Cl)C/C(C)=C/C=C/C(OC)C2(O)CC(OC(=O)N2)C(C)C2OC12C (stereo partly drawn) [Cys-3AA-MDC] | more significantly inhibited the tubulin polymerization |  |
| COc1cc2cc(c1Cl)N(C)C(=O)C[C@H](OC(=O)[C@H](C)N(C)C(=O)CCSC1CC(=O)N(CC3CCC(C(=O)NCCCC[C@H](N)C(=O)O)CC3)C1=O)[C@]1(C)O[C@H]1[C@H](C)[C@@H]1C[C@@](O)(NC(=O)O1)[C@H](OC)/C=C/C=C(\C)C2 (stereo partly drawn) [Lys-mcc-MDC] | more significantly inhibited the tubulin polymerization |  |
| COc1cc2cc(c1Cl)N(C)C(=O)C[C@H](OC(=O)[C@H](C)N(C)C(C)=O)[C@]1(C)O[C@H]1[C@H](C)[C@@H]1C[C@@](O)(NC(=O)O1)[C@H](OC)/C=C/C=C(\C)C2 [Maytansine] |  | inhibitory activity against tumors [2]: significant inhibitory activity; inhibitory concentration, as low as [3]: ≥ 10^−7 μg/mL |
| COc1cc2cc(c1Cl)N(C)C(=O)C[C@H](OC(=O)C(C)C)[C@]1(C)O[C@@H]1[C@H](C)[C@@H]1C[C@@](O)(NC(=O)O1)[C@H](OC)/C=C/C=C(\C)C2 [Ansamitocin P3] |  | efficacy against cancer cell lines [4]: effective against multiple cancer cell lines |
